In the OPERA property sets (Mansouri et al. 2018):

Conditions: for log10 BCF / log10 biotransformation half-life (days): fish

Row | SMILES | melting point [°C] | boiling point [°C] | also measured
1 | OCc1c2ccccc2cc2ccccc12 | – | – | log10 Koc (L/kg): 3.61
2 | c1ccc(COc2ccc3[nH]ccc3c2)cc1 | 102 | – | –
3 | Cl[C@H]1[C@H](Cl)[C@@H](Cl)[C@@H](Cl)[C@H](Cl)[C@H]1Cl (racemic) | – | – | log10 Henry constant (atm·m³/mol): -5.5; log10 Koa: 8.29; log10 Koc (L/kg): 3.17; log10 BCF: 3.04
4 | CC(=O)c1occc1O | 100 | – | –
5 | COCCOCCOC | -68 | 162 | log10 vapour pressure (mmHg): 0.471; ready biodegradability: not readily biodegradable
6 | CCCCCOC(=O)COc1cc(N2C(=O)C3=C(CCCC3)C2=O)c(F)cc1Cl | 89 | – | –
7 | CCCCCCCCCI | – | – | log10 vapour pressure (mmHg): -1.56
8 | C/C=C/C(=O)OC | -42 | 120 | –
9 | Cl.NCCc1ccc(O)cc1 | 272 | – | –
10 | CC1=CCCCCC1 | – | 136 | –
11 | Nc1cccc(C(F)(F)F)c1 | 5.5 | 187 | log10 Koc (L/kg): 2.36
12 | N#Cc1ccc(-c2ccc(C#N)cc2)cc1 | 238 | – | –
13 | CCCCCCC(C)CCC (centres undefined) | -77.5 | 187 | –
14 | O=C(O)CC(O)(CC(=O)O)C(=O)O | 153 | – | log10 vapour pressure (mmHg): -7.78; ready biodegradability: readily biodegradable
15 | NNC(=O)c1ccncc1 | 171 | – | –
16 | CC1CCc2ccccc2O1 (centres undefined) | – | 224 | –
17 | CC(C)CSCC(C)C | -106 | 171 | –
18 | O=Cc1c(F)c(F)c(F)c(F)c1F | 20 | 167 | –
19 | C[Si](Cl)(c1ccccc1)c1ccccc1 | – | 295 | –
20 | OCc1cccc(Cl)c1 | – | 237 | log10 BCF: 1.29
21 | CCCCCCCCCCCCCCCCCC(=O)Oc1ccccc1 | 52 | – | –
22 | Clc1cccc(Oc2ccc(Cl)c(Cl)c2)c1 | – | – | log10 vapour pressure (mmHg): -3.91

Row | SMILES | melting point [°C] | boiling point [°C] | also measured
23 | C[C@]12CC[C@@H]3c4ccc(OC5CCCC5)cc4CC[C@H]3[C@@H]1C[C@@H](O)[C@@H]2O | 99 | – | –
24 | Cc1ccccc1F | -62 | 115 | log10 vapour pressure (mmHg): 1.39
25 | CCCC(C(N)=O)n1nc2ccccc2n1 (centres undefined) | 126 | – | –
26 | CCSc1ccccc1 | – | 205 | –
27 | COP(=S)(OC)Oc1cc(Cl)c(I)cc1Cl | 72.5 | – | log10 vapour pressure (mmHg): -6.08; log10 BCF: 3.62; log10 biotransformation half-life (days): 0.86
28 | CC(=O)Nc1cccc(Cl)c1 | 80 | – | log10 Koc (L/kg): 1.86
29 | Brc1ccc(-c2ccccc2)cc1 | 91.5 | 310 | log10 vapour pressure (mmHg): -2.63; ready biodegradability: readily biodegradable
30 | c1ccc(CC2CCNCC2)cc1 | 16.8 | 270 | –
31 | CC(=O)C(C)CO (centres undefined) | – | – | log10 vapour pressure (mmHg): -0.646
32 | CCCCN | -50 | 78 | log10 Henry constant (atm·m³/mol): -4.76; log10 Koa: 3.61; log10 Koc (L/kg): 1.88; log10 vapour pressure (mmHg): 1.97; ready biodegradability: readily biodegradable
33 | FC(Br)C(F)(F)F (centres undefined) | -80 | 8.6 | log10 Henry constant (atm·m³/mol): -1.24
34 | CC(C)(C)c1cc(O)c(C(C)(C)C)cc1O | 218 | – | –
35 | CC(C)CCNCCC(C)C | -44 | 188 | –
36 | CNC(C)Cc1ccc(O)cc1 (centres undefined) | 161 | – | –
37 | CC(=O)Nc1ccc2c(c1)Cc1cc(F)ccc1-2 | – | – | ready biodegradability: not readily biodegradable
38 | Cc1ccc(C(=O)C(C)CN2CCCCC2)cc1 (centres undefined) | 176 | – | –
39 | CNP(=O)(OC)Oc1ccc(C(C)(C)C)cc1Cl (centres undefined) | 60 | – | –
40 | COC(C)CO (centres undefined) | – | 130 | –
41 | NS(=O)(=O)c1ccc(S(=O)(=O)CCCO)c(F)c1 | 130 | – | –
42 | C[Si](C)(C)C | -99 | 26.6 | log10 vapour pressure (mmHg): 2.86
43 | CC(C)COCC(C)O (centres undefined) | – | 165 | log10 vapour pressure (mmHg): 0.114
44 | CC1CCCC1C (centres undefined) | – | – | log10 biodegradation half-life (days): 0.602; log10 vapour pressure (mmHg): 1.67

Row | SMILES | melting point [°C] | boiling point [°C] | also measured
45 | CC[Si](Cl)(CC)CC | – | 144 | log10 vapour pressure (mmHg): 0.83
46 | Cc1c([N+](=O)[O-])c(C)c([N+](=O)[O-])c(C(C)(C)C)c1[N+](=O)[O-] | 110 | – | ready biodegradability: not readily biodegradable; log10 BCF: 3.61
47 | Oc1ccc2cccnc2c1 | 239 | – | –
48 | COC(=O)c1ccccc1C(=O)c1ccccc1 | 52 | 351 | ready biodegradability: not readily biodegradable; log10 BCF: 1.15; log10 biotransformation half-life (days): -1.3
49 | Sc1nc2ccccc2[nH]1 | – | – | log10 BCF: 0.41
50 | CCCOCC(C)C | – | 107 | –
51 | OC(c1ccccc1)(C(F)(F)F)C(F)(F)F | – | 160 | –
52 | O=C(Nc1cccc(N(CCO)CCO)c1)c1ccccc1 | – | – | ready biodegradability: not readily biodegradable
53 | C=C(C)CC(C)O (centres undefined) | – | 129 | –
54 | COc1ccc(N)c([N+](=O)[O-])c1 | 124 | – | ready biodegradability: not readily biodegradable; log10 BCF: 0.85; log10 biotransformation half-life (days): -0.87
55 | CCCC(=O)C(C)(C)C | – | 147 | –
56 | CCCCCCOC | – | 126 | –
57 | ClCCC(Cl)Cl | -59 | 146 | –
58 | O=C(Nc1ccccc1)c1ccccc1 | 163 | – | –
59 | CCCc1ccccc1C | -60.3 | 185 | log10 biodegradation half-life (days): 0.477; log10 vapour pressure (mmHg): -0.0027
60 | O=C(CBr)c1ccccc1 | 50.5 | – | –
61 | CC(=O)C1CC1 | -68.3 | 111 | log10 Henry constant (atm·m³/mol): -4.99
62 | O=C1c2c(O)cccc2C(=O)C2C(O)=CC=CC12 (centres undefined) | 280 | – | –
63 | Oc1c(I)cc(Cl)c2cccnc12 | 178 | – | –
64 | CN=C(O)/C(=N/OC)c1ccccc1Oc1ccccc1 | 88 | – | log10 vapour pressure (mmHg): -6.87
65 | N#Cc1ccc2[nH]ccc2c1 | 107 | – | –
66 | Oc1ccccc1S | 5.5 | 217 | –

Row | SMILES | melting point [°C] | boiling point [°C] | also measured
67 | CC(=O)CC(C)=O | -23 | 138 | log10 vapour pressure (mmHg): 0.471; ready biodegradability: readily biodegradable
68 | Cn1c(=O)on(-c2ccc(Cl)c(Cl)c2)c1=O | 123 | – | log10 Koc (L/kg): 3.48; log10 vapour pressure (mmHg): -6
69 | CCC(=O)OC(=O)CC | -45 | 170 | log10 vapour pressure (mmHg): 0.134; ready biodegradability: readily biodegradable
70 | CCc1cccc2c1CCCC2 | -44.5 | 245 | –
71 | Cc1cccc2cc3ccc4ccccc4c3cc12 | 118 | – | –
72 | CC(C(=O)O)(c1ccccc1)c1ccccc1 | 176 | – | –
73 | OC[C@@H]1CCCN2CCCC[C@H]12 | 70 | 270 | –
74 | Nc1ccnc(N)c1 | 107 | – | –
75 | CC(CC(C)(C)C)CC(C)(C)CC(C)(C)C (centres undefined) | – | – | ready biodegradability: not readily biodegradable; log10 BCF: 3.82; log10 biotransformation half-life (days): 1.81
76 | CC(C)(Oc1ccc(Cl)cc1)C(=O)OCCOC(=O)c1cccnc1 | 100 | – | –
77 | OC1CCCC1C1CCCC1 (centres undefined) | 20 | 236 | –
78 | CC[C@H]1CN2CCc3cc(OC)c(OC)cc3[C@@H]2C[C@@H]1C[C@H]1NCCc2cc(OC)c(OC)cc21 | 74 | – | –
79 | CC=C1CC2C=CC1C2 (centres undefined) | – | 146 | ready biodegradability: not readily biodegradable; log10 BCF: 2.04; log10 biotransformation half-life (days): -0.56
80 | COc1ccc(C[C@H]2c3cc(OC)c(OC)cc3CCN2C)cc1OC | 89 | – | –
81 | FC(F)(F)c1ccc2c(c1)Nc1ccccc1S2 | 189 | – | –
82 | CCCCCCCCCCCC1=C(O)C(=O)C=C(O)C1=O | 142 | – | –
83 | CCCCCCCCCCCCCCCCCCCCCCCCCCCCCCCCCCCCCCCCCCCC | 87.5 | 548 | ready biodegradability: readily biodegradable
84 | O=C(/C=C/c1ccccc1)c1ccccc1 | 57.5 | 346 | –
85 | COc1cc2c(cc1OC)C1CC(=O)C(CC(C)C)CN1CC2 (centres undefined) | 128 | – | –
86 | CCCCCCI | -74.2 | 181 | log10 Henry constant (atm·m³/mol): -1.55; log10 vapour pressure (mmHg): 0.147; ready biodegradability: readily biodegradable
87 | O=C(O)c1ccc(O)c(O)c1 | – | – | ready biodegradability: readily biodegradable
88 | O=C(O)c1cc(Cl)ccc1Cl | 154 | 301 | ready biodegradability: not readily biodegradable
